Assay: Human HepG2 cell viability assay in 384 well format
Assay type: toxicity, cell-based
Design: dose 125 nL, time 70.5 hour; cytotoxicity at 70.5 h: concentration not given beside the values
Conditions: HepG2 cells, read-out: Inhibition

Row | Structure (SMILES) | cytotoxicity at 70.5 h [%]
1 | COc1ccc(-c2n[nH]cc2CN2CCSCC2)c(OC)c1 | -7.44
2 | CN(C)C(=O)CN1C[C@@H]2CC[C@H](C1)N(C(=O)CCCn1cncn1)C2 | -8.72
3 | FC(F)(F)c1ccnc(N2CCC(c3nccn3CC3CC3)CC2)n1 | -4.46
4 | COc1c(C)cc(S(=O)(=O)NCC2CNCCOC2)cc1C (stereo unspecified) | 3.62
5 | Cc1nc2ccccc2n1Cc1cc(C(=O)NC2CCOC2)no1 (stereo unspecified) | -18.8
6 | CC(C)n1ccnc1C1CCCN(c2nc3ccccc3s2)C1 (stereo unspecified) | 2.12
7 | CN(C)CC(=O)Nc1ccc(C(=O)N(C)CCc2cn[nH]c2)cc1 | -1.37
8 | Cc1cc2[nH]c(CN3CCCCC3c3cccc(F)c3)cc(=O)n2n1 (stereo unspecified) | -5.96
9 | CC(C)CN(Cc1ccccn1)Cc1ccccc1C(=O)O | 14.4
10 | Cc1ccc(C(=O)N2CCC3(CC2)CN(CCN(C)C)C(=O)O3)c(F)c1 | 7.08
11 | COc1cc(OC)cc(C2CC(=O)Nc3c2nc2n3CCCC2)c1 (stereo unspecified) | -3.11
12 | CC(C)c1nnc(CN2CCC3(CC2)Nc2ccccc2NC3=O)o1 | 18
13 | CC(C)S(=O)(=O)NCc1cccnc1Oc1ccc(F)cc1F | 1.03
14 | CC(C)N(C)C(=O)Cn1ncc(N(C)CCc2ccccc2)cc1=O | -3.47
15 | NC(=O)c1cnc2n1CCN(C(=O)c1cccc(Cn3cccn3)c1)C2 | -5.38
16 | CC1(c2ccccc2)CCC(=O)N(CC2(N3CCOCC3)CCCC2)C1 (stereo unspecified) | 6.77
17 | Nc1ncc(CN2CCC(CCC(=O)NC3CC3)CC2)cn1 | 0.29
18 | Cc1cc(N2CCN(C(=O)c3cnn(C(C)C)c3)CC2)cc(C)n1 | 7.11
19 | CCOc1ccc(OCc2nc3c(c(=O)[nH]2)CCNC3)cc1 | -13.5
20 | CNc1ccnc(N2CCC(c3nnc(CN4CCCC4)n3C)CC2)n1 | 13.4
21 | CN(CCCc1cnn(C)c1)c1nccc(-c2cc(C(=O)O)ccn2)n1 | -5.12
22 | O=C1NCCCc2[nH]c(-c3nc(C4CCCCC4)no3)nc21 | 8.47
23 | O=C(c1cn2cc(Cl)cnc2n1)N1CCOCC(O)(CN2CCCC2)C1 (stereo unspecified) | -1.97

Row | Structure (SMILES) | cytotoxicity at 70.5 h [%]
24 | Cc1cc(C)c(C(=O)N2CCN(c3ncccc3C#N)CC2)c(=O)[nH]1 | 1.08
25 | Cc1nc(CN2CCC(c3cc(N4CCCC4)ncn3)CC2)cs1 | 4.68
26 | COCCCn1cnnc1CNC(=O)c1[nH]c2c(C)cc(C)cc2c1C | -6.04
27 | CCc1ocnc1C(=O)N1CCC(n2cc(-c3ccsc3)nn2)CC1 | -10.3
28 | CC(=O)NCC(=O)N1Cc2cnc(CC(C)C)nc2C1 | -5.57
29 | CCC(CO)N(Cc1ccco1)C(=O)c1sccc1NC(C)=O (stereo unspecified) | -5.95
30 | CN(C)CCNCC1(O)CCCN(Cc2cccc(F)c2F)C1=O (stereo unspecified) | 16.1
31 | CCCN1CC2(CCN(C)CC2)CC1C(=O)NCCn1cccn1 (stereo unspecified) | -6
32 | CN(C)[C@H]1CCN(c2ccnc(C(=O)NCc3ccco3)c2)C1 | -5.04
33 | COCC1CCN(Cc2cc(O)c3c(C)ccc(C)c3n2)CC1 | 17.7
34 | CN(CCc1cnn(C)c1)C(=O)C1COc2ccccc2C1 (stereo unspecified) | -10.5
35 | OC1(CN2CCCC2)COCCN(c2nnc(-c3ccccc3)s2)C1 (stereo unspecified) | 15.8
36 | N[C@H]1CN(C(=O)CCc2cc(Cl)no2)C[C@@H]1c1ccccc1 | 29
37 | CC(=O)c1cc(CC(=O)N2CCCC2c2nc(C(C)C)no2)cs1 (stereo unspecified) | -3.24
38 | CCN1CCC(CC(=O)NCc2cc(C)nn2C)CC1 | -4.69
39 | Cc1cccc(N2CCN(CCC(=O)NCc3cccnc3)CC2)c1 | -0.687
40 | CC(C)NC(=O)N1CCCC(c2nnc(CN3CCOCC3)n2C)C1 (stereo unspecified) | -10.9
41 | Cn1ccc2c(-c3cc(N4CCCCC4)ncn3)ccnc21 | 24.9
42 | O=C1NCC2(CCCN(C(=O)c3csc(-c4cccs4)n3)C2)O1 (stereo unspecified) | -14.3
43 | CC(C)CC(C)NCc1cccnc1N1CCN(c2ccccn2)CC1 (stereo unspecified) | -12.3
44 | CCc1nnc(CN(CC)C(=O)C2CC(=O)N(C3CC3)C2)o1 (stereo unspecified) | -3.34
45 | O=C1CCC2(CCOC2)CN1Cc1nc2ccc(Cl)cc2[nH]1 (stereo unspecified) | -1.72
46 | CN1C[C@@H]2CC[C@H](CC1=O)N2C(=O)c1ccc(-c2ccccc2)[nH]c1=O | -8.24

Row | Structure (SMILES) | cytotoxicity at 70.5 h [%]
47 | CCC1CN(C(=O)c2ccc(O)c(C)c2)CCN1C(C)C (stereo unspecified) | -5.22
48 | CCc1cc(CN2CCCCC2c2ccc(F)cc2)on1 (stereo unspecified) | -5.55
49 | O=C1CCCN1CCCNCc1cc(O)c2cccc(F)c2n1 | -3.49
50 | CC(=O)N1CCc2c(nc(N(C)C)nc2N(C)CC2CCCO2)C1 (stereo unspecified) | -6.61
51 | Cc1cccc(C(C(=O)NCCc2nc(C)cc(=O)[nH]2)N(C)C)c1 (stereo unspecified) | 25.6
52 | Cc1ccnc(N2CCCC(c3nccn3C(C)C)C2)n1 (stereo unspecified) | 1.49
53 | Cc1c(C(=O)N2C[C@@H](CN(C)CCO)[C@@H](CO)C2)sc2ccccc12 | -9.44
54 | CC(C)c1nccn1C(C)C(=O)NC1Cc2ccccc2C1 (stereo unspecified) | -1.16
55 | N#Cc1ccc(C(=O)N2CCCC3(C=Cc4ccccc4O3)CC2)cn1 (stereo unspecified) | 7.89
56 | Cn1ccnc1CN1CCN(Cc2ccccc2)[C@@H]2CS(=O)(=O)C[C@@H]21 | -9.92
57 | O=C1NCCN2CCN(Cc3ccc(Cl)c(Cl)c3)CC12 (stereo unspecified) | -8.1
58 | CCCC(C(=O)NC1CCN(S(C)(=O)=O)CC1)n1cccc1 (stereo unspecified) | -3.64
59 | Cc1ccccc1N1CCN(C(=O)c2cscn2)C(C)C1 (stereo unspecified) | -1.54
60 | Cc1nc(N)sc1C(=O)N[C@H]1CN(CCO)C[C@@H]1C1CC1 | -2.54
61 | O=S1(=O)CCC(n2cc(C3=CCN(CCN4CCCCC4)CC3)cn2)C1 (stereo unspecified) | -7.91
62 | CC(C)=CCN1C[C@H]2CC[C@@H]1CN(C(=O)c1ccc(S(N)(=O)=O)cc1)C2 | 1.36
63 | COCCN1CCN(Cc2nc3c(s2)CCCC3)[C@H]2CS(=O)(=O)C[C@H]21 | -8.18
64 | O=C(Nc1ccc(-c2ccn[nH]2)cc1)C1CCCN(Cc2ccoc2)C1 (stereo unspecified) | 1.09
65 | CCN(CCO)C(=O)C1CCC(=O)N(Cc2cccc(OC)c2)C1 (stereo unspecified) | -13.2
66 | Cn1cc(CN2CCOC(CCNC(=O)c3ccsc3)C2)cn1 (stereo unspecified) | -0.896
67 | CC(=O)NCCNC(=O)C1(Oc2cccnc2C)CCNCC1 | -5.79
68 | Nc1nccc(N2CCNC(C(=O)NCc3ccccn3)C2)n1 (stereo unspecified) | 10.1
69 | O=c1c2cccnc2ccn1Cc1nccn1C1CC1 | -10.2

Row | Structure (SMILES) | cytotoxicity at 70.5 h [%]
70 | Cc1noc(C)c1CC(=O)N1CCCC(Cn2ccnc2C)C1 (stereo unspecified) | -16.8
71 | Oc1cc(CN2CCC(O)(Cn3ccnc3)CC2)nc2c(Cl)cccc12 | -9.08
72 | Cc1nn(C)c2nc(N3CCCCC3c3ccc(F)cc3)sc12 (stereo unspecified) | 0.992
73 | CCc1cnc(NCC(c2cccnc2)N2CCOCC2)nc1 (stereo unspecified) | -1.2
74 | COCC(=O)N(Cc1cccnc1)CC1CCN(C2CCCC2)CC1 | 1.31
75 | Cc1cc(C)n2nc(C(=O)N3CCCC4(CNC(=O)O4)C3)cc2n1 (stereo unspecified) | 13.7
76 | Cc1ccc(CN2CCC3(C2)C(=O)N(CC(N)=O)c2ccccc23)s1 (stereo unspecified) | -3.49
77 | O=C(O)c1cccc(N2CCC(Oc3cccc(F)c3)CC2)n1 | -7
78 | Cc1nn2c(N3CCCC(C(N)=O)C3)cc(-c3ccccc3)nc2c1C (stereo unspecified) | -3.49
79 | CCCn1cnnc1CNC(=O)C1COc2ccc(OC)cc2C1 (stereo unspecified) | 20.1
80 | CCOc1ccnc(NCc2nc(C)cc(C(F)(F)F)n2)n1 | -0.888
81 | COc1cccc([C@@H]2CCN(Cc3cccc(C)n3)C[C@H]2O)c1 | -9.27
82 | CC(=O)NCCNCc1cn(CCN2CCSCC2)nc1C | -5.7
83 | CCN(C)S(=O)(=O)NCC1CCN(Cc2ccccc2C)CC1 | -9.65
84 | COCC(C)N1CCc2onc(-c3ccc(C(F)(F)F)cc3)c2C1 (stereo unspecified) | -7.25
85 | CCn1cncc1C1CC(=O)Nc2c1c(C)nn2-c1ccc(C)cc1 (stereo unspecified) | 1.51
86 | Cc1c(C(C)NCC2CCCC2)cnn1-c1ccc(F)cc1F (stereo unspecified) | -11.6
87 | CN(C)c1nc2c(c(=O)[nH]1)Cc1ccccc1OC2 | 31.5
88 | Cc1nc(N(C)CCCc2nccn2C)c2nc(C)oc2n1 | -11.8
89 | CCNC(=O)[C@@H]1C[C@H](n2cc(CC3CCCCC3)nn2)CN1 | -7.89
90 | CN(Cc1nc(C2CC2)no1)C(=O)CN1CC(c2ccccc2)CC1=O (stereo unspecified) | -2.96
91 | CCn1nc(CNC(=O)C2CCCN(CC(N)=O)C2)c2ccccc21 (stereo unspecified) | -14.9
92 | CCN(CC)c1ncccc1CNCc1ccc(Cl)s1 | -7.77

Row | Structure (SMILES) | cytotoxicity at 70.5 h [%]
93 | Cc1ccc(NC2CCCN(Cc3ccc(Cl)cc3)C2)nn1 (stereo unspecified) | 25.4
94 | COc1cc(Oc2ccc(C(F)(F)F)cn2)ccc1CN1CCCC1 | -10.7
95 | COc1cccc(OCC2CCCN(C(=O)CCCn3cccn3)C2)c1 (stereo unspecified) | -11
96 | CCCc1nc(CN(CC)Cc2ccoc2)no1 | -7.87
97 | COc1ccc(-c2ccc(C(=O)N3CCOCC3CC(N)=O)o2)cc1 (stereo unspecified) | -2.54
98 | CCOc1ccc2[nH]c(=O)c(CN(C)CCc3cn[nH]c3)cc2c1 | 4.91
99 | Cc1n[nH]c(C)c1CNc1nc(-c2ccco2)nc2c1CCNCC2 | 5.99
100 | O=C(CCN1CCOCC1)NC1CCCN(CC2CCCCC2)C1 (stereo unspecified) | -3.9
101 | N[C@H]1CC[C@@H](NC(=O)c2ccc3nc(-c4ccc(F)cc4)cn3c2)CC1 | -14.6
102 | CN(C)C(=O)N1C[C@@H]2CC[C@H](C1)N(Cc1nnc(-c3ccccc3)o1)C2 | -16.7
103 | CCc1c(C)sc2ncnc(N3C[C@H](O)[C@@H](N4CCCC4)C3)c12 | -2.63
104 | Nc1nc(CCC(=O)N2C[C@@H](CN3CCCC3)C[C@H](CO)C2)n[nH]1 | -6.67
105 | CC[C@H]1COCCN1C(=O)c1cnc(C(C)C)nc1C | 16.6
106 | Cc1cc(C)nc(N2CCCC(Cn3cc(CN(C)C)nn3)C2)n1 (stereo unspecified) | -6.18
107 | CCOc1ccc(CNCc2cccnc2N(C)C)cc1 | -5.74
108 | O=C(CCN1CCCO1)N1CC[C@@H](CNC(=O)N2CCCC2)[C@H](O)C1 | 14
109 | CC(C)c1nc(CN2CCc3onc(-c4cccc(F)c4)c3C2)no1 | -8.91
110 | Cc1nc(C2CCCNC2)cc(N(Cc2c(C)nn(C)c2C)C2CC2)n1 (stereo unspecified) | -0.0304
111 | CC(C)N1CCC(CC(=O)NC(C(=O)O)c2cccc(F)c2)CC1 (stereo unspecified) | -5.14
